system: NCI-H1155 cells; assay: NSCLC cell viability, CellTiter-Glo, NCI-H1155 cells; assay type: cell-based; conditions: Homo sapiens, NCI-H1155, 72 h, read-out: Cell viability classification (NCI-H1155)

| Compound | IC50 |
| --- | --- |
| O=C1CCC(N2Cc3cc(C(=O)N4Cc5c(F)ccc(OC(F)(F)F)c5C4)ccc3C2=O)C(=O)N1 (stereo not drawn) [Example 185, 3-(5-(4-fluoro-7-(trifluoromethoxy)isoindoline-2-carbonyl)-1-oxoisoindolin-2-yl)piperidine-2,6-dione] | 100 to 1000 nM |

same assay, conditions: Homo sapiens; NCI-H1155 cells, CellTiter-Glo, 72 hours of treatment; read-out: Cell viability classification (NCI-H1155)

| IC50 | Compound |
| --- | --- |
| 100 to 1000 nM | O=C1CCC(c2nc3ccc(C(=O)N4CCc5cc(Cl)ccc5C4)cc3o2)C(=O)N1 (stereo not drawn) [Example 171, 3-(6-(6-chloro-1,2,3,4-tetrahydroisoquinoline-2-carbonyl)benzo[d]oxazol-2-yl)piperidine-2,6-dione] |
| 10 to 100 nM | O=C1CCC(N2Cc3cc(C(=O)N4Cc5ccc(Cl)c(F)c5C4)ccc3C2=O)C(=O)N1 (stereo not drawn) [Example 172, 3-(5-(5-chloro-4-fluoroisoindoline-2-carbonyl)-1-oxoisoindolin-2-yl)piperidine-2,6-dione] |
| 100 to 1000 nM | N#Cc1cccc2c1CN(C(=O)c1ccc3nc(C4CCC(=O)NC4=O)oc3c1)C2 (stereo not drawn) [Example 173, 2-(2-(2,6-dioxopiperidin-3-yl)benzo[d]oxazole-6-carbonyl)isoindoline-4-carbonitrile] |
| 100 to 1000 nM | O=C1CCC(c2nc3ccc(C(=O)N4CCc5c(F)cc(F)cc54)cc3o2)C(=O)N1 (stereo not drawn) [Example 175, 3-(6-(4,6-difluoroindoline-1-carbonyl)benzo[d]oxazol-2-yl)piperidine-2,6-dione] |
| 100 to 1000 nM | O=C1CCC(c2nc3ccc(C(=O)N4Cc5c(F)ccc(F)c5C4)cc3o2)C(=O)N1 (stereo not drawn) [Example 177, 3-(6-(4,7-difluoroisoindoline-2-carbonyl)benzo[d]oxazol-2-yl)piperidine-2,6-dione] |
| 100 to 1000 nM | O=C1CCC(c2nc3ccc(C(=O)N4CCc5cccc(Cl)c5C4)cc3o2)C(=O)N1 (stereo not drawn) [Example 179, 3-(6-(8-chloro-1,2,3,4-tetrahydroisoquinoline-2-carbonyl)benzo[d]oxazol-2-yl)piperidine-2,6-dione] |
| > 1000 nM | O=C1CCC(c2nc3ccc(C(=O)N4CCc5ccc(Cl)cc5C4)cc3o2)C(=O)N1 (stereo not drawn) [Example 180, 3-(6-(7-chloro-1,2,3,4-tetrahydroisoquinoline-2-carbonyl)benzo[d]oxazol-2-yl)piperidine-2,6-dione] |
| > 1000 nM | O=C1CCC(c2nc3ccc(C(=O)N4CCc5c(Cl)cccc5C4)cc3o2)C(=O)N1 (stereo not drawn) [Example 181, 3-(6-(5-chloro-1,2,3,4-tetrahydroisoquinoline-2-carbonyl)benzo[d]oxazol-2-yl)piperidine-2,6-dione] |
| > 1000 nM | O=C1CCC(N2Cc3cc(C(=O)N4CC5(CCOCC5)C4)ccc3C2=O)C(=O)N1 (stereo not drawn) [Example 186, 3-(1-oxo-5-(7-oxa-2-azaspiro[3.5]nonane-2-carbonyl)isoindolin-2-yl)piperidine-2,6-dione] |
| > 1000 nM | O=C1CCC(N2Cc3cc(C(=O)N4CC5(COC5)C4)ccc3C2=O)C(=O)N1 (stereo not drawn) [Example 188, 3-(1-oxo-5-(2-oxa-6-azaspiro[3.3]heptane-6-carbonyl)isoindolin-2-yl)piperidine-2,6-dione] |

| Compound | IC50 |
| --- | --- |
| O=C1CCC(N2Cc3cc(C(=O)N4CC5(CC(C(F)(F)F)C5)C4)c(F)cc3C2=O)C(=O)N1 (stereo not drawn) [Example 183, 3-(6-fluoro-1-oxo-5-(6-(trifluoromethyl)-2-azaspiro[3.3]heptane-2-carbonyl)isoindolin-2-yl)piperidine-2,6-dione] | 10 to 100 nM |
| O=C1CCC(N2Cc3cc(C(=O)N4CC5(CCOC5)C4)ccc3C2=O)C(=O)N1 (stereo not drawn) [Example 187, 3-(1-oxo-5-(6-oxa-2-azaspiro[3.4]octane-2-carbonyl)isoindolin-2-yl)piperidine-2,6-dione] | > 1000 nM |
| O=C1CCC(N2Cc3cc(C(=O)N4CCC5(CCC(F)(F)CC5)C4)ccc3C2=O)C(=O)N1 (stereo not drawn) [Example 190, 3-(5-(8,8-difluoro-2-azaspiro[4.5]decane-2-carbonyl)-1-oxoisoindolin-2-yl)piperidine-2,6-dione] | > 1000 nM |
| O=C1CCC(N2Cc3cc(C(=O)N4CC(F)(c5cccc(F)c5)C4)ccc3C2=O)C(=O)N1 (stereo not drawn) [Example 191, 3-(5-(3-fluoro-3-(3-fluorophenyl)azetidine-1-carbonyl)-1-oxoisoindolin-2-yl)piperidine-2,6-dione] | 100 to 1000 nM |
